In brackets after ≈: the same amount, converted by molar mass. Where two headings read alike, the source gives them in different places.
How the values were obtained:
[1] = cited from earlier work
[2] = in vivo; cited from earlier work
[3] = reference for high intestinal permeability; cited from earlier work
[4] = test system: herpes simplex virus (HSV-1); conditions: cited from earlier work
Varicella-Zoster virus = conditions: S-acetyl glutathione 0.35 mg/mL with three acyclovir concentrations, strongest at 0.9 mcg/mL acyclovir; cited from earlier work
HSV-1 [5] = conditions: combination of D609 and acyclovir; cited from earlier work
[6] = test system: herpes simplex viruses type 1 (HSV-1); conditions: cited from earlier work
HSV-1 “L2/R” virus = format: cell-based, herpes simplex virus type I; conditions: concentrations of 500 mcg/mL and 250 mcg/mL, VERO
Method: The criteria used to evaluate the antiviral activity were: the ability to prevent the development of a virus-induced cytopathic effect and the ability to inhibit reproduction of the virus in the cell culture. Test samples were inserted into the nutrient medium 1 hour after the culture was infected with a certain dose of the virus (the therapeutic scheme). The antiviral activity of the samples and virus-induced cytopathic effects in the cell culture were monitored every day using light microscopy as the degree of morphological alteration of a cell monolayer. The endpoint was on the 4th day of contact of the cells with the infectious material, after a well-defined (100%) cytopathic effect appeared in control samples (positive control). The presence of antiviral activity in samples of organogermanium compounds according to the invention was ascertained as the difference between the viral titers measured in the experiment and in the control.

HSV-2 = conditions: Vero cells, cited from earlier work
[7] = octanol-water partition coefficient log P; format: physicochemical; conditions: n-octanol and water
Text: A criterion that can serve as a measure of the absorption of the solute through the wall of the small intestine is permeability, i.e., the fraction of the substance permeating through the intestinal wall. The physicochemical property of a molecule that makes the greatest contribution to permeability is liphophilicity. A measure of lipophilicity to be used in indirect assessment of intestinal permeability is the octanol-water partition coefficient, log P, which is the logarithm of the ratio of concentrations of an unionized substance in the system of two immiscible liquids (n-octanol and water). […]

HSV-1 [8] = conditions: Vero cells, cited from earlier work
[9] = in the presence of low, inefficient concentrations of xanthogenate; cited from earlier work
[10] = biopharmaceutical and biorelevant solubility (pH media, FaSSIF, FeSSIF)
Method: (§1) For this purpose, we studied the solubilities of these compounds at various pH values that correspond to the gastrointestinal fluids (for the intestinal fluid: pH is 1.2; for the duodenal fluid: pH 4.4; and for the small intestine fluid: pH 6.8).
(§2) One biopharmaceutical solubility value which allows describing a therapeutic drug (TD) as a compound having “high” or “low” solubility, is the dose/solubility ratio (D/S). The dose/solubility ratio is determined as follows: maximal dose (D) (mg)/water solubility (S) (mg/mL).
(§3) Importantly, biopharmaceutical solubility is not a constant value for a given therapeutic drug (TD); rather, it depends on the maximal registered dosage of an immediate-release TD intended for systemic effects.
(§4) One more biopharmaceutical value is the solubility in biorelevant media. These are dissolution media such that approach the human body fluids (intestinal fluid and gastric fluid) as closely as possible in terms of chemical composition and in terms of physicochemical properties (pH, osmomolality, buffer capacity, and surface tension). The simulation of physiological conditions is provided by introducing surfactants (lecithin and sodium taurocholate) into these media. There are two major types of biorelevant media, namely: an artificial intestinal fluid in an empty stomach (fasted state simulated intestinal fluid (FaSSIF)) and after eating (fed state simulated intestinal fluid (FeSSIF)).

Method for physchem: as §1, §2, §3, §4

Nc1ncnc2c1ncn2[C@@H]1O[C@H](CO)[C@@H](O)[C@@H]1O [vidarabine, 9-β-D-arabinofuranosyl adenine]
water solubility (in words) [1]: poorly soluble

Nc1nc2c(ncn2CCC(CO)CO)c(=O)[nH]1 [pencyclovir, 9-[4-hydroxy-3-(hydroxymethyl)butyl]guanine]
water solubility ([1]; at 20° C.): 1740 µg/mL (≈ 6.87 mM)
bioavailability [2]: 1.5%

COCCc1ccc(OCC(O)CNC(C)C)cc1 (centres unmarked) [metoprolol]
log P of reference substance [3]: 1.72

CC(=O)SC[C@H](NC(=O)CC[C@H](N)C(=O)O)C(=O)NCC(=O)O [S-acetyl glutathione]
effect of combination with acyclovir against HSV-1 ([4]; S-acetyl glutathione combined with acyclovir): strong synergistic effect
concentration from which efficient against HSV-1 [4]: ≥ 0.35 mg/mL
effect of compositions with acyclovir against Varicella-Zoster virus (Varicella-Zoster virus): noticeable synergistic effect

S=C(S)OC1CC2CC1C1CCCC21 (centres unmarked) [D609, tricyclodecan-9-yl-xanthogenate]
survival of animals infected with HSV-1 (HSV-1 [5]): survival of all animals

Nc1nc2c(ncn2COC(CO)CO)c(=O)[nH]1 [gancyclovir, 9-[(1,3-dihydroxy-2-propoxy)methyl]guanine]
reduction in gancyclovir concentration ([6]; combination with netropsin and bis-netropsin): fivefold
bioavailability [2]: 5%

CC(C)[C@H](N)C(=O)OCCOCn1cnc2c(=O)[nH]c(N)nc21 [valacyclovir, 2-(guanin-9-ylmethoxy)ethyl L-valine ether]
reduction of the infectious activity of the HSV-1 “L2/R” virus (HSV-1 “L2/R” virus): 1.5 log

Nc1nc2c(ncn2COCCO)c(=O)[nH]1 [acyclovir, 9-[(2-hydroxyethoxy)methyl] guanine]
effect of combination against HSV-2 (HSV-2; acyclovir 0.1-3.4 mcg/mL with carbocyclic oxetanocin G 0.04-0.54 mcg/mL): synergistic effect
effect of combination against HSV-2 (HSV-2; acyclovir 0.1-3.4 mcg/mL with oxetanocin G 0.4-4 mcg/mL): synergistic effect
logP [7]: -1.57
effect of combination against HSV-1 (HSV-1 [8]; acyclovir 0.04-0.4 mcg/mL with carbocyclic oxetanocin G 0.01-0.2 mcg/mL): synergistic effect
effect of combination against HSV-1 (HSV-1 [8]; acyclovir 0.04-0.4 mcg/mL with oxetanocin G 0.4-5.4 mcg/mL): synergistic effect
solubility (physchem; FaSSIF (fasted state simulated intestinal fluid), fassif): 1440 µg/mL (≈ 6.39 mM)
solubility (physchem; FeSSIF (fed state simulated intestinal fluid), fessif): 1380 µg/mL (≈ 6.13 mM)
solubility (physchem; aqueous dissolution medium at pH 1.2, pH 1.2, simulated gastric fluid): 3500 µg/mL (≈ 15.5 mM)
solubility (physchem; aqueous dissolution medium at pH 4.5, pH 4.4, aqueous buffer): 2600 µg/mL (≈ 11.5 mM)
increase of acyclovir activity in a cell culture [9]: fivefold
solubility in hydrophobic systems [1]: almost insoluble
concentration for 50% inhibition of the virus-induced cytopathic effect ([6]; acyclovir used alone): 0.4 µg/mL
acyclovir concentration for 50% inhibition of the virus-induced cytopathic effect ([6]; combined with bis-netropsin 0.15 mcg/mL): 0.15 µg/mL
acyclovir concentration for 50% inhibition of the virus-induced cytopathic effect ([6]; combined with netropsin 2.5 mcg/mL): 0.075 µg/mL
bioavailability [2]: 15-20%
Solubility (“high”/“low”) ([10]; FaSSIF): “low”
Solubility (“high”/“low”) ([10]; FeSSIF): “low”
Solubility (“high”/“low”) ([10]; pH 1.2): “high” (When D/S≦250 mL, the TD has “high” solubility in the relevant aqueous solution)
Solubility (“high”/“low”) ([10]; pH 4.4-4.5 (4.4 for the tested compounds, 4.5 for acyclovir)): low and “low”
Solubility (“high”/“low”) ([10]; pH 6.8): low and “low”
solubility ([10]; pH 6.8): 2400 µg/mL (≈ 10.7 mM)

Source: US9745337B2, “Complex compounds of germanium, methods for producing same, and drugs” (priority 2012, dated 2017)
